Entries after “also recorded” stand apart in the source; their conditions may differ.
What was measured:
maize cultivar DKC 2931 = assay: Regular maize pot experiment (potting soil); type: in vivo; details: low phosphate, 10 μM compound
Description: (§1) All Arabidopsis plant experiments were performed using the Arabidopsis thaliana Columbia-0 background. The Arabidopsis pSPX1::GUS line is described in the […] 2008, 54: 965-975. For rice, the cultivar Nipponbare was used. For maize, the cultivars DKC 2931 and 8104 were used for regular pot experiments and sand-based pot experiments, respectively. For soybean, the cultivar Primus was used. […] The medium was solidified due to the addition of 0.6% Gelrite, unless stated otherwise. In case of vertical plates (root length and root hair measurements), the medium was supplied with 0.5% of sucrose and 1 μM (low phosphate, 1 μM KH2PO4, 9.9 mM KCl), 10 μM (low phosphate 10 μM KH2PO4, 9.9 mM KCl) or 1.25 mM KH2PO4 (high phosphate). Arabidopsis seeds were stratified for 2 days at 4° C. before germination. Seedlings were germinated in climate-controlled growth chambers at 22° C. under continuous light ([…] m^−2 s^−1). Husked rice seeds were germinated on wetted Whatman paper for 2 days at 37° C. and then transferred to Sterivent boxes or square Petri dishes with solid medium. Maize and soybean seeds were wetted 24 hours at room temperature prior to sowing in pots.
(§2) Regular Arabidopsis, soybean and maize pot experiments used an unfertilized potting soil, which was supplemented at the start of the experiment with 50 ml H2O containing 0.25 g/l NH4NO3 and 0.44 g/l (high phosphate) or no (maize and soybean) or 0.11 g/l KH2PO (Arabidopsis) for low phosphate conditions. For the sand-based maize pot experiment, sand was supplemented with 50 ml H2O containing 0.25 g/l NH4NO3 and 0.38 g/l (high phosphate) or 0.02 g/l (low phosphate) KH2PO4. Potassium was balanced via addition of KCl. Compound concentration was 10 μM, calculated based on the total water content after watering, and was added at the start of the experiment (Arabidopsis) or once a week (maize). Indexed chlorophyll contents were received via a SPAD 502 Plus Chlorophyll Meter. All parameters in the sand experiment, except the rate of leaf 4 (measured the first 4 days after emergence), were measured 19 days after sowing. Measurements in the pot experiments with potting soil were done after 4 weeks of growth, except for leaf 5, which was measured at 26 days. The long term maize pot experiment was performed on the automated Phenovision platform (see Mertens et al, 2021, https://doi.org/10.3389/fpls.2021.640914) with maize cultivars B104 and DKC2931. End point measurements occurred after 90 days (B104) or 70 days (DKC2931). Plants were grown on an unfertilized potting soil, which was fertilized bi-weekly with 50 mL modified Hoagland solution (2.5× concentrated; but with 0.25 mM KH2PO4).

[1] = tested on: Arabidopsis thaliana Columbia-0; assay: Root hair number and length quantification, Arabidopsis vertical plate; type: in vivo
Description: as §1
Roots were imaged using a stereomicroscope or a VHX-6000. Number and length of the root hairs parallel to the medium surface was determined at 4 to 6 mm above the root meristem. Root hair length was measured using the ImageJ software.

[2] = tested on: SPX1 phosphate starvation biomarker (pSPX1::GUS); assay: Chemical activity assessment: SPX1 suppression in Arabidopsis pSPX1::GUS reporter line (GUS stained area); type: in vivo, Arabidopsis thaliana
Description: as §1
For the chemical activity assessment 3 to 8 seeds per well of Arabidopsis pSPX1::GUS line were sown in 96-well plates containing 150 μl of low phosphate modMS liquid medium containing 1% of sucrose. Compounds were added in 50 μM concentration, starting from a 5 mM stock of compounds solved in DMSO. Different chemical substances were separately added to different wells. Per plate, 16 control wells were used, 8 containing only the low phosphate medium and 1% DMSO, and 8 containing high phosphate medium and 1% DMSO. 7 days after germination, plates were scanned using a flatbed scanner (EPSON Expression 11000XL) and analyzed for leaf size. After scanning, the growth medium was replaced by GUS staining solution (see Plant Mol. Biol. Rep. 1994, 12: 37-42 for details) and incubated for 1.5 hours at 37° C. The plates were scanned a second time and analyzed for GUS signal area. Measurements of both leaf area and GUS signal area were conducted by filtering out and measure the green and blue signal, respectively using ImageJ software. If the green leaf area was 50% or less than the control, samples were omitted. Additionally, all results were visually screened for leaf size and GUS signal.
To identify new substances that suppress the expression of the SPX1 phosphate starvation biomarker, we used an Arabidopsis SPX1 reporter line pSPX1::GUS. […] This observation was confirmed in two experimental repeats.

maize cultivar 8104 = assay: Sand-based maize pot experiment; type: in vivo; details: low phosphate, 10 μM compound
Description: as §1, §2

[3] = tested on: Arabidopsis thaliana Columbia-0; assay: Arabidopsis 96-well plate anthocyanin quantification; type: in vivo
Description: Col-0 ecotype Arabidopsis seeds were sown in 96-well plates containing 150 μl of low phosphate modMS liquid medium containing 1% of sucrose. Compounds was added in 50 μM concentration (1% DMSO). Eight plants per repeat were collected 7 days after germination and put into a fresh Eppendorf. Extraction and quantification of anthocyanin levels was carried out according to The Plant cell 2013, 25:1641-1656. Anthocyanin levels were quantified by measuring absorption at 530 and 657 nm using a spectrophotometer and normalized to fresh weight input, and expressed relative to the low phosphate control. For pot experiments, the same procedure was followed with one 4-week old plant per sample.

[4] = tested on: Arabidopsis thaliana Columbia-0; assay: Arabidopsis vertical plate growth assay (primary root length, shoot biomass); type: in vivo; details: low phosphate
Description: as §1
Arabidopsis primary root growth experiments were done on MS1/2 on vertical standing plates and roots were measured 11 days after germination. Roots were imaged using a flatbed scanner (EPSON Expression 11000XL) and root length was measured using ImageJ software. Arabidopsis shoot biomass was determined in 11 days after germination and growth on vertical standing plates with modMS. Arabidopsis leaf area was measured 21 days after germination on horizontal plates with modMS medium. Plates were scanned from the top using a flatbed scanner (EPSON Expression 11000XL) and the visible leaf area was measured using ImageJ software. Rice plate experiments used vertically standing Petri dishes containing MS1/2 medium (low phosphate—0.001 mM) solidified with 0.8% washed agar. Plant height was measured 11 days after germination. […] Plant height was measured 13 days after germination. […]

[5] = Arabidopsis vertical plate, high phosphate
[6] = Arabidopsis vertical plate, 10 μM compound, 11 days after germination

SMILES: CCN(CCCNc1ncnc2nc(N)ccc12)c1ccccc1 [Example 1]
- Plant height (maize cultivar DKC 2931; 4 weeks): 59 cm
- Shoot weight (maize cultivar DKC 2931; 4 weeks): 4 g
- Leaf 5 (maize cultivar DKC 2931; 26 days): 43 cm
- activity at 1 µM ([1]; Arabidopsis thaliana, 1 μM compound, read-out: Total root hair length per root (in % compared to the control)): 749%
- Average root hair length per root in high phosphate conditions [1, 5]: 0.26 mm
- Root hair number in high phosphate conditions (one plane in 2 mm region) [1, 5]: 9
- Total root hair length per root in high phosphate conditions [1, 5]: 0.26 cm
- GUS (SPX1) stained area normalized to the number of seeds ([2]; 50 μM compound, low phosphate modMS liquid medium, 96-well, 7 days after germination, low phosphate control of same plate): 0.3 pixels
- Suppression of the SPX1 biomarker (in words) ([2]; low phosphate, 7 days of growth, GUS staining, listed as compound 17): practically completely suppressed the SPX1 biomarker; also recorded: strongest suppression of SPX1
- Crown root number (maize cultivar 8104; 19 days after sowing): 8
- Plant height (maize cultivar 8104; 19 days after sowing): 27 cm
- Indexed chlorophyll content (maize cultivar 8104; SPAD meter, 19 days after sowing): 31
- Growth rate of leaf 4 (maize cultivar 8104; first 4 days after emergence): 2.64 cm/day
- Anthocyanin level in the leaves (in words) ([3]; 96-well plate assay): reduced
- Relative anthocyanin level ([3]; Arabidopsis 96-well plate, low phosphate, 50 μM compound, 7 days after germination, relative to control (=1)): 0.6
- Primary root length compared with the control without compound (in words) ([4]; 10 μM, 11-day-old Arabidopsis): almost double the length of the control
- Primary root length [4, 6]: 3.4 cm
- Shoot biomass [4, 6]: 21 mg

Reference: patent US20240306641A1, “P-BOOSTER” (EUROCHEM ANTWERPEN, priority 2021, published 2024)
